Calls of active or inactive are those of the source. The rule behind the calls is not given here.
System: rodent carcinogenicity bioassays, tumor incidence
Test: CCRIS carcinogenicity studies
Procedure, shortened: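 NCI-built, expert-reviewed records of carcinogenicity and related test outcomes (mutagenicity, tumor promotion/inhibition) compiled from published and report sources, historical span 1985-2011, not updated.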

With `Oc1ccc(-c2cc(Cl)c(Cl)c(Cl)c2Cl)cc1` the carcinogen call (Species: MOUSE, Strain/Sex: BALB/CCRGL/FEMALE, Route: SUBCUTANEOUS, Dose: 40 UG DAILY FOR 5 D BEGINNING 16 HR AFTER BIRTH (STUDY DURATION: 20 MO), Tumor Site: Type of Lesion: MAMMARY GLAND: CARCINOMA (4/30), CERVICOVAGINAL TRACT: CARCINOMA (4/30)) was “active; positive” and the carcinogen call (Species: MOUSE, Strain/Sex: BALB/CCRGL/FEMALE, Route: SUBCUTANEOUS, Dose: 400 UG DAILY FOR 5 D BEGINNING 16 HR AFTER BIRTH (STUDY DURATION: 20 MO), Tumor Site: Type of Lesion: CERVICOVAGINAL TRACT: CARCINOMA (5/24)) was “active; positive”.
`O=P1(O)OP(=O)(O)OP(=O)(O)O1` was tested, and the carcinogen call (Species: RAT, Strain/Sex: F344/FEMALE, Route: ORAL, Dose: 0, 1.5, 3% IN DIET FOR DURATION OF STUDY (STUDY DURATION: 108 WK), Dose: 0, 1.5, 3% IN DIET FOR DURATION OF STUDY (STUDY DURATION: 108 WK)) was “inactive; negative” and the carcinogen call (Species: RAT, Strain/Sex: F344/MALE, Route: ORAL, Dose: 0, 1.5, 3% IN DIET FOR DURATION OF STUDY (STUDY DURATION: 108 WK), Dose: 0, 1.5, 3% IN DIET FOR DURATION OF STUDY (STUDY DURATION: 108 WK)) was “inactive; negative”.
With `CC(COc1ccccc1)N(CCCl)Cc1ccccc1` (stereo not given) the carcinogen call (Species: MOUSE, Strain/Sex: B6C3F1/FEMALE, Route: INTRAPERITONEAL, Dose: 0, 12.5, 25 MG/KG 3/WK FOR 50 OR 52 WK, Dose: 0, 12.5, 25 MG/KG 3/WK FOR 50 OR 52 WK, Tumor Site: Type of Lesion: PERITONEAL CAVITY: SARCOMA) was “active; positive”, the carcinogen call (Species: MOUSE, Strain/Sex: B6C3F1/MALE, Route: INTRAPERITONEAL, Dose: 0, 12.5, 25 MG/KG 3/WK FOR 50 OR 52 WK, Dose: 0, 12.5, 25 MG/KG 3/WK FOR 50 OR 52 WK, Tumor Site: Type of Lesion: PERITONEAL CAVITY: SARCOMA) was “active; positive” and the carcinogen call (Species: MOUSE, Strain/Sex: STRAIN-A/MALE,FEMALE, Route: INTRAPERITONEAL, Dose: 40, 100, 200 MG/KG IN TRICAPRYLIN, Dose: 40, 100, 200 MG/KG IN TRICAPRYLIN, Tumor Site: Type of Lesion: LUNG: ADENOMA) was “active; positive”. For the same compound, the carcinogen call (Species: RAT, Strain/Sex: SPRAGUE-DAWLEY/FEMALE, Route: INTRAPERITONEAL, Dose: 0, 5, 10 MG/KG 3/WK FOR 52 WKS, Dose: 0, 5, 10 MG/KG 3/WK FOR 52 WKS, Tumor Site: Type of Lesion: PERITONEAL CAVITY: SARCOMA) was “active; positive” and the carcinogen call (Species: RAT, Strain/Sex: SPRAGUE-DAWLEY/MALE, Route: INTRAPERITONEAL, Dose: 0, 5, 10 MG/KG 3/WK FOR 52 WK, Dose: 0, 5, 10 MG/KG 3/WK FOR 52 WK, Tumor Site: Type of Lesion: PERITONEAL CAVITY: SARCOMA) was “active; positive”.
With `Cc1cccc2cccnc12` the carcinogen call (Species: MOUSE, Strain/Sex: CD-1/FEMALE, Route: INTRAPERITONEAL, Dose: 0, 0.25, 0.5, 1.0 UMOL IN DMSO TO NEWBORN MICE ON DAYS 1, 8 AND 15 OF LIFE RESPECTIVELY (TOTAL DOSE: 1.75 UMOL) (STUDY D, Dose: 0, 0.25, 0.5, 1.0 UMOL IN DMSO TO NEWBORN MICE ON DAYS 1, 8 AND 15 OF LIFE RESPECTIVELY (TOTAL DOSE: 1.75 UMOL) (STUDY D) was “inactive; negative”, the carcinogen call (Species: MOUSE, Strain/Sex: CD-1/MALE, Route: INTRAPERITONEAL, Dose: 0, 0.25, 0.5, 1.0 UMOL IN DMSO TO NEWBORN MICE ON DAYS 1, 8 AND 15 OF LIFE RESPECTIVELY (TOTAL DOSE: 1.75 UMOL) (STUDY D, Dose: 0, 0.25, 0.5, 1.0 UMOL IN DMSO TO NEWBORN MICE ON DAYS 1, 8 AND 15 OF LIFE RESPECTIVELY (TOTAL DOSE: 1.75 UMOL) (STUDY D) was “inactive; negative” and the carcinogen call (Species: RAT, Strain/Sex: F344/MALE,FEMALE, Route: ORAL, Dose: 0.05% IN DIET FOR 2 YR) was “inactive; negative”. For the same compound, the carcinogen call (Species: RAT, Strain/Sex: SPRAGUE-DAWLEY/MALE, Route: SUBCUTANEOUS, Dose: 0, 200 UMOL/KG IN DMSO INTO SUPRASCAPULAR AREA ON DAY 1 OF LIFE FOLLOWED BY 0, 100 UMOL 1/WK AT WK 2-7 THEN 0, 200 UMOL/, Dose: 0, 200 UMOL/KG IN DMSO INTO SUPRASCAPULAR AREA ON DAY 1 OF LIFE FOLLOWED BY 0, 100 UMOL 1/WK AT WK 2-7 THEN 0, 200 UMOL/) was “inactive; negative” and the carcinogen call (Species: SPRAGUE-DAWLEY/MALE, Strain/Sex: SPRAGUE-DAWLEY/FEMALE, Route: SUBCUTANEOUS, Dose: 0, 200 UMOL/KG IN DMSO INTO SUPRASCAPULAR AREA ON DAY 1 OF LIFE FOLLOWED BY 0, 100 UMOL 1/WK AT WK 2-7 THEN 0, 200 UMOL/, Dose: 0, 200 UMOL/KG IN DMSO INTO SUPRASCAPULAR AREA ON DAY 1 OF LIFE FOLLOWED BY 0, 100 UMOL 1/WK AT WK 2-7 THEN 0, 200 UMOL/) was “inactive; negative”.
For `CN(C)[C@@H]1C(=O)C(C(N)=O)=C(O)[C@@]2(O)C(=O)C3=C(O)c4c(O)cccc4[C@@](C)(O)[C@H]3[C@H](O)[C@@H]12`, the carcinogen call (Species: MOUSE, Strain/Sex: B6C3F1/FEMALE, Route: ORAL, Dose: 0, 6300, 12500 PPM IN DIET FOR 103 WK (STUDY DURATION: 103 WK), Dose: 0, 6300, 12500 PPM IN DIET FOR 103 WK (STUDY DURATION: 103 WK)) was “inactive; negative”, the carcinogen call (Species: MOUSE, Strain/Sex: B6C3F1/MALE, Route: ORAL, Dose: 0, 6300, 12500 PPM IN DIET FOR 103 WK (STUDY DURATION: 103 WK), Dose: 0, 6300, 12500 PPM IN DIET FOR 103 WK (STUDY DURATION: 103 WK)) was “inactive; negative” and the carcinogen call (Species: RAT, Strain/Sex: F344/FEMALE, Route: ORAL, Dose: 0, 25000, 50000 PPM IN DIET FOR 103 WK (STUDY DURATION: 103 WK), Dose: 0, 25000, 50000 PPM IN DIET FOR 103 WK (STUDY DURATION: 103 WK), Tumor Site: Type of Lesion: PITUITARY GLAND: ADENOMA) was “equivocal”. The carcinogen call (Species: RAT, Strain/Sex: F344/MALE, Route: ORAL, Dose: 0, 25000, 50000 PPM IN DIET FOR 103 WK (STUDY DURATION: 103 WK), Dose: 0, 25000, 50000 PPM IN DIET FOR 103 WK (STUDY DURATION: 103 WK), Tumor Site: Type of Lesion: ADRENAL GLAND: PHEOCHROMOCYTOMA) was “equivocal”.
`OC1c2nc3c(ccc4ccccc43)cc2C2OC2C1O` (stereo not given) was tested, and the carcinogen call (Species: MOUSE, Strain/Sex: SWISS/FEMALE, Route: INTRAPERITONEAL, Dose: 0, 1.05 UMOL GIVEN AS 150 NMOL IN 5 µL DMSO WITHIN 24 HR OF BIRTH, 300 NMOL IN 10 µL DMSO ON D 8 OF LIFE, AND 600 NMOL I) was “inactive; negative” and the carcinogen call (Species: MOUSE, Strain/Sex: SWISS/MALE, Route: INTRAPERITONEAL, Dose: 0, 1.05 UMOL GIVEN AS 150 NMOL IN 5 µL DMSO WITHIN 24 HR OF BIRTH, 300 NMOL IN 10 µL DMSO ON D 8 OF LIFE, AND 600 NMOL I) was “inactive; negative”.

Source: PubChem BioAssay AID1259411 (Chemical Carcinogenesis Research Information System (CCRIS), 2018)
